Measurements taken from patent US12157730B2, “Heteroaryl derivative, method for producing same, and pharmaceutical composition comprising same as effective component” (VORONOI INC., priority 2019, dated 2024).

Target: T1, Ba/F3 cell EGFR Exon20 ins NPH (Homo sapiens, UniProt P00533, INS773NPH)
T1 construct: expressed in transfected cells; host or cells: Ba/F3
Test: Ba/F3 cell proliferation suppression, EGFR Exon20 ins NPH
Format: cell-based
Settings: GI50 class; Ba/F3 cell line with NPH inserted at Exon20 of EGFR; 72 hours
Procedure, shortened: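 Cells (3000–5000/well) plated 24 h before compound, 12-point 3-fold dilutions at 0.3 nM to 50 um final; Ba/F3 lines grown with 5 ng/ml IL-3. Viability by CellTiter-Glo luminescence after 72 h, growth ratio vs control, GI50 from curves; triplicate.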

| SMILES | Ba/F3 (NPH) Activity |
| --- | --- |
| C=CC(=O)Nc1cc(Nc2cc(N3OCC[C@@H]3c3cc(F)cc(F)c3)ncn2)c(OC)cc1N1CCC(N2CCNCC2)CC1 [compound 754, N-(5-((6-((R)-3-(3,5-difluorophenyl)isoxazolidine-2-yl)pyrimidine-4-yl)amino)-4-methoxy-2-(4-(piperazine-1-yl)piperidine-1-yl)phenyl) acrylamide] | B (50 nM ≤ GI50 < 500 nM) |
| C=CC(=O)Nc1cc(Nc2cc(N3OCC[C@@H]3c3cc(F)cc(F)c3)ncn2)c(OC)cc1N1CCC(N2C[C@H]3COC[C@H]3C2)CC1 [Example 105, N-(5-((6-((R)-3-(3,5-difluorophenyl)isoxazolidine-2-yl)pyrimidine-4-yl)amino)-4-methoxy-2-(4-((3aR, 6aS)-tetrahydro-1H-puro[3,4-c]pyrrole-5(3H)-yl)piperidine-1-yl)phenyl)acrylamide] | A (GI50 < 50 nM) |
| C=CC(=O)Nc1cc(Nc2cc(N3OCC[C@@H]3Cc3cccnc3)ncn2)c(OC)cc1N1CCC(N2CCN(C3CC3)CC2)CC1 [compound 985, N-(2-(4-(4-cyclopropylpiperazine-1-yl)piperidine-1-yl)-4-methoxy-5-((6-((S)-3-(pyridine-3-ylmethyl)isoxazolidine-2-yl)pyrimidine-4-yl)amino)phenyl) acrylamide] | C (500 nM ≤ GI50 < 5000 nM) |
| C=CC(=O)Nc1cc(Nc2cc(N3OCC[C@@H]3c3cc(F)cc(F)c3)ncn2)c(OC)cc1N1CCC(N2CCN(C(C)CC)CC2)CC1 (stereo partly drawn) [compound 894, N-(2-(4-(4-(sec-butyl)piperazine-1-yl)piperidine-1-yl)-5-((6-((R)-3-(3,5-difluorophenyl)isoxazolidine-2-yl)pyrimidine-4-yl)amino)-4-methoxyphenyl) acrylamide] | A (GI50 < 50 nM) |
| C=CC(=O)Nc1cc(Nc2cc(N3OCC[C@@H]3Cc3cccc(F)c3)ncn2)c(OC)cc1N1CCC(N2CCN(C3CC3)CC2)CC1 [compound 997, N-(2-(4-(4-cyclopropylpiperazine-1-yl)piperidine-1-yl)-5-((6-((S)-3-(3-fluorobenzyl)isoxazolidine-2-yl)pyrimidine-4-yl)amino)-4-methoxyphenyl) acrylamide] | A (GI50 < 50 nM) |
| C=CC(=O)Nc1cc(Nc2cc(N3OCC[C@@H]3c3cccc(OC)c3)ncn2)c(OC)cc1N1CCC(N(C)C)CC1 [compound 731] | B (50 nM ≤ GI50 < 500 nM) |
| C=CC(=O)Nc1cc(Nc2cc(N3OCC[C@@H]3c3cccc4ccccc34)ncn2)c(OC)cc1N1CCC(N2CCO[C@@H](C)C2)CC1 [compound 535, N-(4-methoxy-2-(4-((S)-2-methylmorpholino)piperidine-1-yl)-5-((6-((R)-3-(naphthalene-1-yl)isoxazolidine-2-yl)pyrimidine-4-yl)amino)phenyl)acrylamide] | A (GI50 < 50 nM) |
| C=CC(=O)Nc1cc(Nc2cc(N3OCC[C@@H]3Cc3cccc(F)c3C)ncn2)c(OC)cc1N1CCN(C2CC2)CC1 [compound 1038, N-(2-(4-cyclopropylpiperazine-1-yl)-5-((6-((S)-3-(3-fluoro-2-methylbenzyl)isoxazolidine-2-yl)pyrimidine-4-yl)amino)-4-methoxyphenyl) acrylamide] | A (GI50 < 50 nM) |
| C=CC(=O)Nc1cc(Nc2cc(N3OCC[C@@H]3c3ccc4ccccc4c3)ncn2)c(OC)cc1N1C[C@@H](C)O[C@@H](C)C1 [compound 664, N-(2-((2S,6R)-2,6-dimethylmorpholino)-4-methoxy-5-((6-((R)-3-(naphthalene-2-yl)isoxazolidine-2-yl)pyrimidine-4-yl)amino)phenyl)acrylamide] | C (500 nM ≤ GI50 < 5000 nM) |
| C=CC(=O)Nc1cc(Nc2cc(N3OCC[C@@H]3c3cccc(C)c3F)ncn2)c(OC)cc1N1CCC(N2CCOCC2)CC1 [compound 856, N-(5-((6-((R)-3-(2-fluoro-3-methylphenyl)isoxazolidine-2-yl)pyrimidine-4-yl)amino)-4-methoxy-2-(4-morpholinopiperidine-1-yl)phenyl)acrylamide] | A (GI50 < 50 nM) |
| C#Cc1cccc([C@H]2CCON2c2cc(Nc3cc(NC(=O)C=C)c(N4CCC(N5C[C@@H]6C[C@H]5CO6)CC4)cc3OC)ncn2)c1 [compound 618, N-(2-(4-((1S,4S)-2-oxa-5-azabicyclo[2.2.1]heptane-5-yl)piperidine-1-yl)-5-((6-((R)-3-(3-ethynylphenyl)isoxazolidine-2-yl)pyrimidine-4-yl)amino)-4-methoxyphenyl) acrylamide] | A (GI50 < 50 nM) |
| C=CC(=O)Nc1cc(Nc2cc(N3OCC[C@@H]3c3cccs3)ncn2)c(OC)cc1N1CCC(N2CCN(C3CC3)CC2)CC1 [Example 147, N-(2-(4-(4-cyclopropylpiperazine-1-yl)piperidine-1-yl)-4-methoxy-5-((6-((R)-3-(thiophene-2-yl)isoxazolidine-2-yl)pyrimidine-4-yl)amino)phenyl)acrylamide] | A (GI50 < 50 nM) |
| C=CC(=O)Nc1cc(Nc2cc(N3OCC[C@@H]3c3cccc(F)c3F)ncn2)c(OC)cc1N1CCN(C)[C@H](C)C1 [compound 884, N-(5-((6-((R)-3-(2,3-difluorophenyl)isoxazolidine-2-yl)pyrimidine-4-yl)amino)-2-((R)-3,4-dimethylpiperazine-1-yl)-4-methoxyphenyl) acrylamide] | A (GI50 < 50 nM) |
| C=CC(=O)Nc1cc(Nc2cc(N3OCC[C@@H]3c3cccc(Cl)c3Cl)ncn2)c(OC)cc1N1C[C@@H]2C[C@H]1CO2 [compound 522, N-(2-((1S,4S)-2-oxa-5-azabicyclo[2.2.1]heptane-5-yl)-5-((6-((R)-3-(2,3-dichlorophenyl)isoxazolidine-2-yl)pyrimidine-4-yl)amino)-4-methoxyphenyl) acrylamide] | B (50 nM ≤ GI50 < 500 nM) |
| C=CC(=O)Nc1cc(Nc2cc(N3OCC[C@@H]3c3c(F)ccc(F)c3Cl)ncn2)c(OC)cc1N1CCC(N2CCN(C3CC3)CC2)CC1 [compound 933, N-(5-((6-((R)-3-(2-chloro-3,6-difluorophenyl)isoxazolidine-2-yl)pyrimidine-4-yl)amino)-2-(4-(4-cyclopropylpiperazine-1-yl)piperidine-1-yl)-4-methoxyphenyl) acrylamide] | A (GI50 < 50 nM) |
| C=CC(=O)Nc1cc(Nc2cc(N3OCC[C@@H]3Cc3cccc(Cl)c3OC)ncn2)c(OC)cc1N1CCN(C2CC2)CC1 [compound 1053, N-(5-((6-((S)-3-(3-chloro-2-methoxybenzyl)isoxazolidine-2-yl)pyrimidine-4-yl)amino)-2-(4-cyclopropylpiperazine-1-yl)-4-methoxyphenyl) acrylamide] | A (GI50 < 50 nM) |
| C=CC(=O)Nc1cc(Nc2cc(N3OCC[C@@H]3c3cc(F)cc(F)c3)ncn2)c(OC)cc1N1CCC(N2C[C@H](C)N(C3CC3)C[C@@H]2C)CC1 [Example 113, N-(2-(4-((2S,5S)-4-cyclopropyl-2,5-dimethylpiperazine-1-yl)piperidine-1-yl)-5-((6-((R)-3-(3,5-difluorophenyl)isoxazolidine-2-yl)pyrimidine-4-yl)amino)-4-methoxyphenyl) acrylamide] | A (GI50 < 50 nM) |
| C=CC(=O)Nc1cc(Nc2cc(N3OCC[C@@H]3c3ccc(F)c(Cl)c3F)ncn2)c(OC)cc1N1CCC(N2CCN(CC)CC2)CC1 [compound 639, N-(5-((6-((R)-3-(3-chloro-2,4-difluorophenyl)isoxazolidine-2-yl)pyrimidine-4-yl)amino)-2-(4-(4-ethylpiperazine-1-yl)piperidine-1-yl)-4-methoxyphenyl) acrylamide] | A (GI50 < 50 nM) |
| C=CC(=O)Nc1cc(Nc2cc(N3OCC[C@@H]3c3cccc(F)c3)ncn2)c(OC)cc1N1CCC(N2C[C@@H]3C[C@H]2CO3)CC1 [Example 244, N-(2-(4-((1S,4S)-2-oxa-5-azabicyclo[2.2.1]heptane-5-yl)piperidine-1-yl)-5-((6-((R)-3-(3-fluorophenyl)isoxazolidine-2-yl)pyrimidine-4-yl)amino)-4-methoxyphenyl) acrylamide] | A (GI50 < 50 nM) |
| C=CC(=O)Nc1cc(Nc2cc(N3OCC[C@@H]3c3ccc(Cl)c(F)c3)ncn2)c(OC)cc1N1CCC(N2CCN(C3CC3)CC2)CC1 [Example 63, N-(5-((6-((R)-3-(4-chloro-3-fluorophenyl)isoxazolidine-2-yl)pyrimidine-4-yl)amino)-2-(4-(4-cyclopropylpiperazine-1-yl)piperidine-1-yl)-4-methoxyphenyl) acrylamide] | A (GI50 < 50 nM) |
| C=CC(=O)Nc1cc(Nc2cc(N3OCC[C@@H]3c3ccc(F)cc3)ncn2)c(OC)cc1N1CCC(N2C[C@H]3CCN(C)[C@H]3C2)CC1 [compound 541, N-(5-((6-((R)-3-(4-fluorophenyl)isoxazolidine-2-yl)pyrimidine-4-yl)amino)-4-methoxy-2-(4-((3aR,6aR)-1-methylhexahydropyrrolo [3,4-b]pyrrole-5(1H)-yl)piperidine-1-yl)phenyl)acrylamide] | A (GI50 < 50 nM) |
| C=CC(=O)Nc1cc(Nc2cc(N3OCC[C@@H]3c3ccc(F)c(F)c3F)ncn2)c(OC)cc1N1CCC(N2CCN(C3CCC3)CC2)CC1 [Example 187, N-(2-(4-(4-cyclobutylpiperazine-1-yl)piperidine-1-yl)-4-methoxy-5-((6-((R)-3-(2,3,4-trifluorophenyl)isoxazolidine-2-yl)pyrimidine-4-yl)amino)phenyl)acrylamide] | A (GI50 < 50 nM) |
| C=CC(=O)Nc1cc(Nc2cc(N3OCC[C@H]3Cc3ccccc3)ncn2)c(OC)cc1N(C)CCN(C)C [compound 973, N-(5-((6-((R)-3-benzylisoxazolidine-2-yl)pyrimidine-4-yl)amino)-2-((2-(dimethylamino)ethyl) (methyl)amino)-4-methoxyphenyl) acrylamide] | B (50 nM ≤ GI50 < 500 nM) |
